Entries after “also recorded” stand apart in the source; their conditions may differ.
Legend:
VLA-5 = target: T1, VLA-5 (Homo sapiens, UniProt P05556+P08648); assay: Adhesion of K562 cells to Fn-120 (VLA-5 / α5β1-FN adhesion); assay type: cell-based
T1 construct: endogenous in cells; host or cells: K562 cells
Protocol: Untreated 96 well polystyrene flat bottom plates were coated with 5 μg/ml Fn-120 overnight at 4° C. The plates were washed twice with phosphate buffered saline (PBS) and blocked with 1% Bovine Serum Albumin (BSA) for 1 hour at room temperature. The plates were washed twice with TBS buffer containing 1 mM MnCl2 (assay buffer). K562 cells were labeled with 2 μM of the fluorescent dye, BCECF-AM (see section 4.1.3), and bound to the plate for 30 minutes at room temperature. The plates were inverted and washed three times and adherent cells were quantitated in a Cytofluor fluorescent platereader using an excitation wavelength of 485 nm and an emission wavelength of 530

[1] = system: Ascaris suum-sensitive sheep; assay: Ovine model of allergic pulmonary inflammation (Ascaris suum allergen challenge); assay type: in vivo; conditions: for EAR (ΔSLR × h): 0-4 h; for LAR (ΔSLR × h): 4-8 h; for PC400 (Post/Pre): carbachol 24 h post-challenge; for early and late airway response, hyperresponsiveness to carbachol (in words): aerosol 2 h before challenge
Excerpt: Allergic sheep weighing between 27-50 kg were used. […] The sheep were conscious and were restrained in a modified shopping cart in the prone position with their heads immobilized. After topical anesthesia of the nasal passages with 2% lidocaine, a balloon catheter was advanced through one nostril into the lower esophagus. The animals were intubated with a cuffed endotracheal tube through the other nostril using a flexible fiberoptic bronchoscope as a guide. All protocols used in this study were approved by the Mount Sinai Medical Center Animal Research Committee, which is responsible for assuring the humane care and use of experimental animals. Pleural pressure was estimated using an esophageal balloon catheter (filled with 1 mL of air), which was positioned 5 to 10 cm from the gastroesophageal-junction. In this position, the end expiratory pleural pressure ranged between −2 to −5-cmH2O. Once the balloon was placed, it was secured so that it remained in the same position for the duration of the experiment. Lateral pressure in the trachea was measured with a sidehole catheter (inner diameter, 2.5 mm) advanced through and positioned distal to the tip of the endotracheal tube.
The tracheal and pleural pressure catheters were connected to a differential pressure transducer (MP45, Validyne, Northridge, Calif.) for the measurement of transpulmonary pressure which was defined as the difference between tracheal and pleural pressure. Airflow was measured by connecting the proximal end of the endotracheal tube to a pneumotachograph (Fleisch, Dyna Sciences, Inc., Blue Bell, Pa.). The signals of transpulmonary pressure and flow were recorded on a multichannel physiological recorder which was linked to a 80-386 DOS Personal Computer for on-line calculation of mean pulmonary flow resistance (RL) by dividing the change in transpulmonary pressure by the change in flow at mid-tidal volume (obtained by digital integration). The mean of at least five breaths, free of swallowing artifact, was used to obtain RL in cmH2O/L/sec. Immediately after the measurement of RL, thoracic gas volume (Vtg) was measured in a constant-volume body plethysmograph to obtain specific lung resistance (SRL=RL×Vtg) in L×cmH2O/L/sec.
All liquid-dose aerosols were generated using a disposable medical air-jet nebulizer (Raindrop®, Puritan Bennett, Lenexa, Kans.) that provided an aerosol with a mass median aerodynamic diameter of 3.2 μm as determined by an Andersen cascade impactor. The nebulizer was connected to a dosimeter system, consisting of a solenoid valve and a source of compressed air (20 psi). The output of the nebulizer was directed into a plastic T-piece, one end of which was connected to the inspiratory port of a piston respirator (Harvard Apparatus, S. Natick, Mass.). The solenoid valve was activated for one second at the beginning of the inspiratory cycle of the respirator. Aerosols were delivered at a tidal volume of 500 mL and a rate of 20 breaths per minute. To assess bronchial responsiveness, cumulative concentration response curves to carbachol were performed by measuring SRL immediately after inhalation of buffer and after each consecutive administration of 10 breaths of increasing concentrations of carbachol (0.25, 0.5, 1.0, 2.0 and 4.0% w/v in buffered saline). The provocation test was discontinued when SRL increased over 400% from the post-saline value or after the highest carbachol concentration had been administered. Bronchial responsiveness was assessed by determining the cumulative carbachol concentration (in breath units) that increased SRL by 400% over the post-saline value (PC400) by interpolation from the dose response curve. One breath unit (BU) was defined as one breath of a 1% w/v carbachol nebulized solution.
Doses of oMePUPA-V were dissolved in either ethanol:normal saline 1:2, ethanol:200 mM sodium phosphate 1:5 or Tris buffer. When using Tris, any required dilution was performed using normal saline. […]

VLA-4 = VLA-4 (Homo sapiens, UniProt P05556+P13612); assay: CS1 Cell Adhesion Assay, Jurkat cells to CS1/BSA conjugate; assay type: cell-based; design: endogenous in cells; host or cells: Jurkat (human T cell line)
VLA-4, sequence (P13612 34-1032): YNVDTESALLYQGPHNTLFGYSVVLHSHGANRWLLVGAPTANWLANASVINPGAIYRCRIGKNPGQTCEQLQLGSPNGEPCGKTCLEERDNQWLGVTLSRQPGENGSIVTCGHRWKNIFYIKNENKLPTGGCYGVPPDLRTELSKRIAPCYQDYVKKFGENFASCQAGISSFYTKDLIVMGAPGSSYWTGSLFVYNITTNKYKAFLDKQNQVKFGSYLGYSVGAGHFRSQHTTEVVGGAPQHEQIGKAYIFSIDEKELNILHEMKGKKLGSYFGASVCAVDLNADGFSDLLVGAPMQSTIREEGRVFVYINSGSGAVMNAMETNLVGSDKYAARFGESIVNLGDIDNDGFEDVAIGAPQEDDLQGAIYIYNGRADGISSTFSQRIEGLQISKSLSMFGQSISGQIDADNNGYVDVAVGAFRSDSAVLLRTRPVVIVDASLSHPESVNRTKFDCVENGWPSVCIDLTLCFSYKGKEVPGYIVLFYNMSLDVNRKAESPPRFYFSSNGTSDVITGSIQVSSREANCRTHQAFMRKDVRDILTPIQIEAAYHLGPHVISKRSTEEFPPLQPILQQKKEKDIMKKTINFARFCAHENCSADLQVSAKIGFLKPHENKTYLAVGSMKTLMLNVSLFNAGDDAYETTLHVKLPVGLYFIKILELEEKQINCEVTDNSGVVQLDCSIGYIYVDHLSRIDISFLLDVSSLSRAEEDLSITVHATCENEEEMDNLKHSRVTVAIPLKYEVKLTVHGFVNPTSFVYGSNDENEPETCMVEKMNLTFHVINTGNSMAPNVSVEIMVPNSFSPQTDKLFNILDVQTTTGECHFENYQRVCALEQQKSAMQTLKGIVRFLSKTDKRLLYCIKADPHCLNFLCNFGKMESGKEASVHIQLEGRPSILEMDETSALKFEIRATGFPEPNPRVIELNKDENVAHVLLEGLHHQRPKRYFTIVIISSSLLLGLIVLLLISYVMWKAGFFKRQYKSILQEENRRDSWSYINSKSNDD
VLA-4, sequence (P05556 21-798): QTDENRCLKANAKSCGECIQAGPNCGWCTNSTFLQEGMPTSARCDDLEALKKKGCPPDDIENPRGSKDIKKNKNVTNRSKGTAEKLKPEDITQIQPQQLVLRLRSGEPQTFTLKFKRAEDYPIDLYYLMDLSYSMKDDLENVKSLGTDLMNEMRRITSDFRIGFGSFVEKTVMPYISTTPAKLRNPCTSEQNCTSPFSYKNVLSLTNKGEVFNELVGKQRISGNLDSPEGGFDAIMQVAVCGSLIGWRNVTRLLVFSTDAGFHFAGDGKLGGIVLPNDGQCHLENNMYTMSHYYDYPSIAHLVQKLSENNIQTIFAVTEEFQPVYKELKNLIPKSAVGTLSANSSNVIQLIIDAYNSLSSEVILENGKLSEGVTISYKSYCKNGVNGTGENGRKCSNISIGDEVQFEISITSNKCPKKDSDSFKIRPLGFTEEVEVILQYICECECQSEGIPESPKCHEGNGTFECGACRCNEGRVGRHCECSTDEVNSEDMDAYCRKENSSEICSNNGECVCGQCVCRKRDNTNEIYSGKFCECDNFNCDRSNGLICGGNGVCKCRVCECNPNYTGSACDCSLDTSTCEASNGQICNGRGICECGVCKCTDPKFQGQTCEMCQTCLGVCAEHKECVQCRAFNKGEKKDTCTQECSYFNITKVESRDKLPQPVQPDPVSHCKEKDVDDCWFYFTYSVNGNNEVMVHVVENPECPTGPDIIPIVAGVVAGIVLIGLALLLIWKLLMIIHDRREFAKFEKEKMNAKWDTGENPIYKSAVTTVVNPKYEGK
Protocol: The peptide NH2-cysteine-tyrosine-CS-1 was synthesized and coupled to BSA-SMCC (SMCC is a heterobifunctional crosslinker which reacts with free amino groups on BSA and the sole cysteine of the synthetic peptide) at a CS1/BSA ratio of 10:1. Wells were coated overnight with 100 μL of conjugate diluted to a final concentration of 1 ug/ml. The next day the wells were blocked with BSA in PBS for one hour and then washed three times.
The human T cell line, Jurkat, was labeled with 2 μM BCECF-AM, a fluorescent dye (2′, 7′, bis-(2-carboxyethyl)-5 and -6) carboxy fluorescein acetoxymethyl ester (Molecular Probes Inc., Eugene, Oregon; catalog #B-1150) that is internalized and deesterified thus trapping the dye within live cells. Jurkat cells (1×10^5 cells/well) in buffer containing 1 mM Mn^+2 were added to the coated plates in the presence of three-fold serial dilutions of inhibitor. Each concentration was assayed in duplicate. After 30 minutes at room temperature, the plates were inverted and washed three times or until no cells were adherent to control wells coated with BSA alone. CS1-adherent cells were quantitated in a Cytofluor fluorescent platereader using an excitation wavelength of 485 nm and an emission wavelength of 530 nm.
Cells adhered to CS1/BSA in the absence of compound served as the 0% inhibition control whereas cells adhering to BSA alone served as the 100% inhibition control. IC50's were calculated using Deltagraph software, version 5.

[2] = 0.01 mg aerosol, EtOH:NS, 2 hours prior to allergen challenge
[3] = 0.03 mg aerosol, EtOH:NS, 2 hours prior to allergen challenge
[4] = 0.03 mg once daily for 4 days, EtOH:NS, challenge 24 h after last dose
[5] = 0.03 mg once daily for 4 days, Tris:NS, challenge 24 h after last dose
[6] = 0.10 mg aerosol, EtOH:NS, 2 hours prior to allergen challenge
[7] = 1.00 mg aerosol, EtOH:PBS, 2 hours prior to allergen challenge
[8] = 3.00 mg aerosol, EtOH:PBS, 2 hours prior to allergen challenge

T1 sequence (P08648 42-894 limits assumed): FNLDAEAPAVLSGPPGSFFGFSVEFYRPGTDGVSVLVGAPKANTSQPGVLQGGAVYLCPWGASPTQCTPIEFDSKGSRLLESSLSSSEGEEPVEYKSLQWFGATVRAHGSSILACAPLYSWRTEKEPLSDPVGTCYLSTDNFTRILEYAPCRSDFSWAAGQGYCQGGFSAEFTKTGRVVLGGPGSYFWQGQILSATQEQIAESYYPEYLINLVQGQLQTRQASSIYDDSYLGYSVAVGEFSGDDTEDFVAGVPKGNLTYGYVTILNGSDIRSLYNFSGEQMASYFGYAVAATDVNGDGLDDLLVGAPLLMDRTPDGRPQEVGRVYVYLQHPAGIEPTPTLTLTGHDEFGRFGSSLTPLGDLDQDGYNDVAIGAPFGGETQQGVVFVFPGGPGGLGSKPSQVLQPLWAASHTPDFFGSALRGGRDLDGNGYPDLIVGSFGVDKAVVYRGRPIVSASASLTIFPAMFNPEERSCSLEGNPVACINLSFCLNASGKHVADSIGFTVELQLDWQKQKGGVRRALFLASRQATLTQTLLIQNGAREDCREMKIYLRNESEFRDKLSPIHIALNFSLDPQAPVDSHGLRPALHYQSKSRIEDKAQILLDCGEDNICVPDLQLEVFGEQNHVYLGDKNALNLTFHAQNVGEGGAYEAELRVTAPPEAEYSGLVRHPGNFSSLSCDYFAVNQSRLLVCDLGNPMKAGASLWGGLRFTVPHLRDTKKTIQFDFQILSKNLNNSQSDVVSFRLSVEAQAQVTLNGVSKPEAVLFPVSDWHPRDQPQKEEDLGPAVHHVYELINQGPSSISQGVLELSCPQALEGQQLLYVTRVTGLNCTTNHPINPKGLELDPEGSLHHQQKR
T1 sequence (P08648 895-1049 partner limits assumed): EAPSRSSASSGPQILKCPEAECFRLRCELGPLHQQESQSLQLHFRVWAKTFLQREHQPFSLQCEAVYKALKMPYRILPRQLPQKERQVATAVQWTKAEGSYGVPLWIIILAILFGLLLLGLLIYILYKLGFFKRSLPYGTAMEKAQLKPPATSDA
T1 sequence (P05556 21-798): as the sequence (P05556 21-798) above

## Cc1ccccc1NC(=O)Nc1ccc(CC(=O)N2CCC[C@H]2C(=O)N[C@H](C)CC(=O)O)cc1 [oMePUPA-V]
VLA-5
  measurable activity against VLA-5: > 100 µM
VLA-5; @ 100 μM, Mn+2, 100 µM
  inhibition, K562 (VLA-5) Fn-120 adhesion: no inhibition; also recorded: no inhibition @
VLA-5; read-out: IC50 against α5β1-FN adhesion
  IC50: > 100000 nM
[1]; [2]
  EAR (ΔSLR × h): 6.87 ± 0.05 ΔSLR × h
  LAR (ΔSLR × h): 5.11 ± 1.46 ΔSLR × h
  PC400 (Post/Pre): 0.44 ± 0.04
[1]; [3]
  EAR (ΔSLR × h): 10.62 ± 3.91 ΔSLR × h
  LAR (ΔSLR × h): 3.98 ± 0.23 ΔSLR × h
  PC400 (Post/Pre): 0.43 ± 0.00
[1]; [4]
  EAR (ΔSLR × h): 1.53 ± 0.34 ΔSLR × h
  LAR (ΔSLR × h): 0.59 ± 0.16 ΔSLR × h
  PC400 (Post/Pre): 1.06 ± 0.04
[1]; [5]
  EAR (ΔSLR × h): 1.40 ± 0.35 ΔSLR × h
  LAR (ΔSLR × h): 0.02 ± 0.06 ΔSLR × h
  PC400 (Post/Pre): 1.04 ± 0.04
[1]; 0.03 mg once daily for 4 days, antigen challenge 24 h after the last dose
  protection against EAR, LAR and hyperresponsiveness (in words): protective
[1]; [6]
  EAR (ΔSLR × h): 2.54 ± 0.74 ΔSLR × h
  LAR (ΔSLR × h): 0.67 ± 0.17 ΔSLR × h
  PC400 (Post/Pre): 1.18 ± 0.11
[1]; [7]
  EAR (ΔSLR × h): 2.14 ± 0.70 ΔSLR × h
  LAR (ΔSLR × h): 0.27 ± 0.34 ΔSLR × h
  PC400 (Post/Pre): 1.05 ± 0.11
[1]; [8]
  EAR (ΔSLR × h): 2.47 ± 0.62 ΔSLR × h
  LAR (ΔSLR × h): 0.68 ± 0.07 ΔSLR × h
  PC400 (Post/Pre): 1.07 ± 0.08
[1]; daily for 4 days, antigen challenge 24 hours after the last dose
  Minimum effective dose in sheep model, repeat-dose: 1 µg/kg
[1]; doses of 0.01 and 0.03 mg
  early and late airway response, hyperresponsiveness to carbachol (in words): did not inhibit early or late airway response
[1]; doses of 0.1, 1 and 3 mg
  early and late airway response, hyperresponsiveness to carbachol (in words): inhibited the early airway response and maximally inhibited the late airway response
[1]; single nebulized dose 2 hours before antigen challenge
  Minimum effective dose in sheep model, single dose: 3 µg/kg
VLA-4; 1 mM MnCl2, read-out: IC50 ± SD, Jurkat cell CS1 adhesion
  IC50: 22 nM
VLA-4; in the presence of Mn+2
  blocking of Jurkat cell adhesion to CS1 (in words): completely block

Source: US6495525B1, “VLA-4 inhibitor: oMePUPA-V” (Biogen, Inc., priority 1998, dated 2002)
